One experiment relates to ERK1/2 phosphorylation. Description: Western ERK1/2 Cell-Based Phosphorylation Assay. As to conditions: Homo sapiens, PANC-1, 6 hours, EGF 1.5 ng/ml, read-out: % inh of ERK1/2 phosphorylation in PANC-1. The procedure: Cell lines: Human tumor-derived pancreatic cancer cell line Panc-1 was purchased from American Type Culture Collection and grown in complete DMEM-High Glucose, supplemented with penicillin (100 U/mL), streptomycin (100 μg/mL), and 10% heat-inactivated FBS at 37° C. in a humidified incubator with 5% CO2.
(§1) Method: Cells were plated at 350000 cells/well density in a 12-well plate, allowed 3 hours to adhere to the plate, then starved in the appropriate medium in the presence of 0.5% FBS overnight. The small molecules to be tested were added to the cells in the final concentration of 10 μM in the presence of 0.3% DMSO for 6 hours incubation at 37° C. For IC50 value determination, serial dilutions of compounds were added to cells under the same conditions. Next, cells were stimulated with 1.5 ng/ml EGF for 15 minutes then cells were lysed with lysis buffer containing 1% Triton X-100, EDTA, and Halt™ Protease & Phosphatase Inhibitor Cocktail (Thermo Scientific). Protein concentration was assessed by BCA protein assay (Thermo Scientific). Phosphorylation level of ERK1/2 was determined by western blot.
(§2) Western blot protocol: Equal amounts of protein (15-50 μg) were separated by SDS-PAGE and transferred to nitrocellulose membranes (Invitrogen by Thermo Fisher Scientific). The membrane was stained with Ponceau S Stain (Boston BioProducts) to verify uniform protein loading. Membranes were blocked with 10% milk and phosphorylation levels of ERK1/2 were assessed by incubating overnight at 4° C. with anti-phospho-p44/42 (Thr202/Tyr204) antibody (Cell Signaling) followed by HRP-conjugated secondary antibody (Jackson Immunoresearch, West Grove, PA). Bands were incubated in Amersham ECL Prime Western Blotting Detection Reagent (GE Healthcare) and visualized using the ChemiDoc MP imaging system (Bio-Rad).

The subject of another experiment is AKT phosphorylation. Description: Western AKT Cell-Based Phosphorylation Assay. As to conditions: Homo sapiens, PANC-1, 6 hours, EGF 1.5 ng/ml, read-out: % inh of AKT phosphorylation in PANC-1. The procedure: Human tumor-derived pancreatic cancer cell line Panc-1 was purchased from American Type Culture Collection and grown in complete DMEM-High Glucose supplemented with penicillin (100 U/mL), streptomycin (100 μg/mL), and 10% heat-inactivated FBS at 37° C. in a humidified incubator with 5% CO2.
as §1, with “C.” for “C. For IC50 value determination, serial dilutions of compounds were added to cells under the same conditions.”, “Akt” for “ERK1/2”
as §2, with “Akt” for “ERK1/2”, “anti-phospho-Akt (Ser473)” for “anti-phospho-p44/42 (Thr202/Tyr204)”

Another experiment has as its target Cdc42 (Homo sapiens (Human), UniProt P60953). Description: Cdc42 GTP Binding Domain Inhibition Assay. As to conditions: read-out: Cdc42: % inh. On the procedure:
The following method was developed as specific assay for cdc42 and Rheb proteins.
Buffer-I: • 25 mM Tris-HCl, pH 7.4 • 27 mM KCl • 137 mM NaCl • 1 mM MgCl2 • 1 mM DTT
Buffer-IL: • 50 mM Tris-HCl, pH 7.0 • 1 mM MgCl2 • 1 mM DTT
The small GTPases proteins cdc42 and Rheb were expressed as His-tagged proteins. For the assay, the cdc42 and Rheb purified small GTPases proteins were diluted in Buffer-I or Buffer-II to a final concentration of 10-30 μg/mL. 200 μL of each diluted protein was added to a nickel-coated 96-well plate and incubated overnight at […]. Then the protein solution was discarded and 200 μL of Buffer-I or Buffer-II was added to each well in the presence of 1% DMSO. Compounds to be tested were added to the protein-coated wells at final concentration of 20 μM, and incubated for 3 hours at room temperature with and without 10-30 μg/mL of Sos added to the final hour of the incubation. When performing IC50 measurements a serial dilution of all tested concentrations was added. Then Cy3-GTP or Cy5-GTP was added to each well to a final concentration of 100 nM. The labeled GTP was incubated for 45 minutes at room temperature. Following GTP incubation, wells were washed 3× in Buffer-I or Buffer-II and 200 μL of Buffer-I or Buffer-II was added to each well. Following washes, the amount of bound labeled-GTP was measured using a SpectraMax M3 (Molecular Devices).

Chain of Cdc42 (P60953 whole entry, species assumed, the tested form may be a part): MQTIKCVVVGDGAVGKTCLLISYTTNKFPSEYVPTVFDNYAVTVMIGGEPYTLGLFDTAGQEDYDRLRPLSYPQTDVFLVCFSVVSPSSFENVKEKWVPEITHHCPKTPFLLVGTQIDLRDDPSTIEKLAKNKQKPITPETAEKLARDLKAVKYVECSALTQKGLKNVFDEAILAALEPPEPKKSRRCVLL

With `COc1cc(-c2sc3nc(-c4nccn4C)nc(N[C@@H]4CC[C@H](OC)C4)c3c2-c2ccccc2)ccn1` (racemic) [Compound 44, rac-N-((1R,3S)-3-Methoxycyclopentyl)-6-(2-methoxypyridin-4-yl)-2-(1-methyl-1H-imidazol-2-yl)-5-phenylthieno[2,3-d]pyrimidin-4-amine], the inhibition at 10 µM in the experiment on ERK1/2 phosphorylation is 46 to 75%; in the experiment with AKT phosphorylation, 76 to 100%. For the same compound, at Cdc42, the inhibition at 20 µM lay in the range of 1 to 25%.
With `COc1cccc(-c2sc3nc(-c4nccn4C)nc(N[C@H]4C[C@H](OC)C4)c3c2-c2ccccc2)c1F` [Compound 40, 6-(2-Fluoro-3-methoxyphenyl)-N-((1r,3r)-3-methoxycyclobutyl)-2-(1-methyl-1H-imidazol-2-yl)-5-phenylthieno[2,3-d]pyrimidin-4-amine], the inhibition at 10 µM in the experiment on ERK1/2 phosphorylation and in the experiment with AKT phosphorylation was 76 to 100% each time. The inhibition at 20 µM on Cdc42 was in the range of 26 to 45%.
Regarding `COc1cc(-c2sc3nc(-c4nccn4C)nc(N[C@H]4C[C@H](OC)C4)c3c2-c2ccccc2)ccn1` [Compound 46, N-((1r,3r)-3-Methoxycyclobutyl)-6-(2-methoxypyridin-4-yl)-2-(1-methyl-1H-imidazol-2-yl)-5-phenylthieno[2,3-d]pyrimidin-4-amine], the figures for the inhibition at 10 µM in the experiment on ERK1/2 phosphorylation and in the experiment on AKT phosphorylation were 76 to 100% and 1 to 25%, respectively. For the same compound, the inhibition at 20 µM on Cdc42 is 46 to 75%.
`COc1cc(-c2sc3nc(-c4nccn4C)nc(N[C@@H]4CC[C@@H](OC)C4)c3c2-c2ccccc2)ccn1` (racemic) [Compound 47, N-((1R,3R)-3-Methoxycyclopentyl)-6-(2-methoxypyridin-4-yl)-2-(1-methyl-1H-imidazol-2-yl)-5-phenylthieno[2,3-d]pyrimidin-4-amine]: the inhibition at 10 µM with ERK1/2 phosphorylation and with AKT phosphorylation was 76 to 100% in each case. In addition, the inhibition at 20 µM at Cdc42 fell in the range of 46 to 75%.
In the case of `COc1nccc(-c2sc3nc(-c4nccn4C)nc(N[C@H]4C[C@H](OC)C4)c3c2-c2ccccc2)c1F` [Compound 45, 6-(3-Fluoro-2-methoxypyridin-4-yl)-N-((1r,3r)-3-methoxycyclobutyl)-2-(1-methyl-1H-imidazol-2-yl)-5-phenylthieno[2,3-d]pyrimidin-4-amine], the inhibition at 10 µM in the experiment with ERK1/2 phosphorylation and in the experiment with AKT phosphorylation was 76 to 100% throughout. Further, the inhibition at 20 µM on Cdc42 was in the range of 46 to 75%.

Source of the values: patent US20240124483A1, “Methods for the Treatment of Fibrotic Disease” (SHY Therapeutics, LLC, priority 2021, published 2024).
